Data: patent US10215751B2, “Carboxy X rhodamine analogs” (PROMEGA CORPORATION, priority 2011, dated 2019)

Biological target: T1, NanoLuc luciferase-PKC alpha fusion protein (Homo sapiens, UniProt P17252)
T1 construct: expressed in transfected cells; host or cells: HEK293 cells, transient transfection with pF5 plasmid
Assay: BRET negative control with cells expressing NanoLuc fused to an irrelevant kinase
Assay type: cell-based
Details: HEK293 cells expressing NanoLuc-PKCalpha (negative control)
Procedure: HEK293 cells (20,000 cells per well in 96-well format) were transiently transfected (Fugene HD, Promega Corporation) with pF5 plasmid DNA (Promega Corporation) encoding a NanoLuc® luciferase-p38alpha kinase fusion protein. As a negative control, some cells were transfected with a pF5 plasmids DNA encoding a NanoLuc luciferase-PKC alpha fusion protein. On the second day post transfection, the cell medium was replaced with serum-free Opti-MEM (Life Technologies) with or without 50 ug/ml digitonin. […] A furimazine substrate (PBI 3939), a substrate for the NanoLuc luciferase, then was added to cells to a final concentration of 20 uM. BRET ratios were recorded using a Varioskan luminometer at the following wavelengths: 630 nm (acceptor)/450 nm (donor). Acceptor/donor values were used to determine BRET ratio (FIGS. 21 and 22).

## Cc1ccc(-n2nc(C(C)(C)C)cc2NC(=O)Nc2ccc(OCCN3CCOCC3)c3ccccc23)cc1 [BIRB796, reference compound]
  Effect of unlabeled BIRB796 on BRET signal with PBI 4838: not affected
